System: ALP in NHAC (normal human articular chondrocytes)
Test: Alkaline Phosphatase (ALP) activity assay: ALP staining and quantitation in NHACs (prevention of chondrocyte hypertrophy)
Assay type: cell-based
Details: Chondrocyte, 288 h, human IL-1 beta 10 ng/mL, 12 days; for IC50: Fast Blue RR staining, high content imaging; for Emax: read-out: ALP in NHAC (% Efficacy)
Experimental: The compounds of the present invention were evaluated in the Alkaline Phosphatase (ALP) activity assay to determine the ability of the compounds to prevent chondrocyte hypertrophy in normal human articular chondrocytes (NHACs).
Normal human articular chondrocytes (NHACs) were purchased from PromoCell (Heidelberg, Germany) and grown in Chondrocyte Growth Medium (CGM; Lonza, Walkersville, Md.).
NHACs were expanded in Chondrocyte Growth Medium (CGM) from Lonza until they reached a 60-80% confluency. To initiate differentiation, 7,500 cells were plated/well with indicated test compound dose in 384-well Cell Carrier Ultra plates (Perkin Elmer) with DMEM (SH30022—HyClone) containing 10% FBS (35-015-CV—Corning), 1% Pen/Strep antibiotics (SV30010—HyClone), and 1% Normocin (50 mg/mL—InvivoGen). Cells with test compounds were incubated at 37° C., 5% CO2 for 5 hours and then added human IL-1 beta (AF-200-1B—Peprotech) to each well at a final concentration of 10 ng/mL and incubated at 37° C., 5% CO2 for 12 days.
To detect the presence of hypertrophic cells, NHACs were fixed with 4% paraformaldehyde and Hoechst 33342 (Invitrogen) dye for 30 minutes, rinsed in PBS, then stained with Fast Blue RR Salt (F0500—Sigma) with Naphthol AS-MX Phosphate Alkaline Solution, 0.25% (855—Sigma-Aldrich).
The staining was imaged by fluoresecent microscopy, using the 561 nm wavelength, and/or quantified by high content imaging with the ImageXpress Confocal (Molecular Devices, Sunnyvale, CA). Data analyses were performed with a customized multiwavelength cell-scoring application The activity of the compounds of the present invention in the ALP assay is summarized in Table 2.

COc1cc([C@@]23C[C@]2(C(=O)Nc2ccc(F)c(C(F)(F)F)c2)[C@H]2C[C@H](O)[C@@H]3O2)ccn1 (racemic) [Example 32, rac-(1R,2R,4S,5R,6S)—N-(4-fluoro-3-(trifluoromethyl)phenyl)-6-hydroxy-4-(2-methoxypyridin-4-yl)-8-oxatricyclo[3.2.1.02,4]octane-2-carboxamide] was tested, and the IC50 was over 30 µM and the Emax was 4%.

For COc1cc([C@@]23C[C@]2(C(=O)Nc2ccc(C#N)c(C(F)(F)F)c2)[C@H]2C[C@H](O)[C@@H]3O2)ccn1 (racemic) [Example 38, rac-(1R,2R,4S,5R,6S)—N-(4-cyano-3-(trifluoromethyl)phenyl)-6-hydroxy-4-(2-methoxypyridin-4-yl)-8-oxatricyclo[3.2.1.02,4]octane-2-carboxamide], the IC50 was 24 µM and the Emax was 71%.

COc1cc([C@@]23C[C@]2(C(=O)Nc2cccc(C(F)(F)F)c2)[C@H]2C[C@H](O)[C@@H]3O2)ccn1 (racemic) [Example 26, rac-(1R,2R,4S,5R,6S)-6-hydroxy-4-(2-methoxypyridin-4-yl)-N-(3-(trifluoromethyl)phenyl)-8-oxatricyclo[3.2.1.02,4]octane-2-carboxamide] was tested, and the IC50 was over 30 µM and the Emax was 5%.

Cc1ccc(NC(=O)[C@]23C[C@@]2(c2ccnc(F)c2)[C@H]2O[C@@H]3C[C@@H]2O)cc1C(F)(F)F (racemic) [Example 11, rac-(1R,2R,4S,5R,6S)-4-(2-fluoropyridin-4-yl)-6-hydroxy-N-(4-methyl-3-(trifluoromethyl)phenyl)-8-oxatricyclo[3.2.1.02,4]octane-2-carboxamide] gave an IC50 of over 30 µM and an Emax of 0%.

Work on COc1cc(NC(=O)[C@]23C[C@@]2(c2ccnc(OC)c2)[C@H]2O[C@@H]3C[C@@H]2O)cc(C(F)(F)F)c1 (racemic) [Example 35, rac-(1R,2R,4S,5R,6S)-6-hydroxy-N-(3-methoxy-5-(trifluoromethyl)phenyl)-4-(2-methoxypyridin-4-yl)-8-oxatricyclo[3.2.1.02,4]octane-2-carboxamide] yielded an IC50 of over 30 µM and an Emax of 0%.

With N#Cc1ccc(C(F)(F)F)cc1NC(=O)[C@]12C[C@@]1(c1cccc(C(F)(F)F)c1)[C@H]1O[C@@H]2C[C@@H]1O (racemic) [Example 80, rac-(1R,2R,4S,5R,6S)—N-(2-cyano-5-(trifluoromethyl)phenyl)-6-hydroxy-4-(3-(trifluoromethyl)phenyl)-8-oxatricyclo[3.2.1.02,4]octane-2-carboxamide] the IC50 was 2.2 µM and the Emax was 76%.

Work on COc1cc([C@@]23C[C@]2(C(=O)Nc2ccc(C(F)(F)F)c(F)c2)[C@H]2C[C@H](O)[C@@H]3O2)ccn1 (racemic) [Example 75, rac-(1R,2R,4S,5R,6S)—N-(3-fluoro-4-(trifluoromethyl)phenyl)-6-hydroxy-4-(2-methoxypyridin-4-yl)-8-oxatricyclo[3.2.1.02,4]octane-2-carboxamide] yielded an IC50 of over 30 µM and an Emax of 26%.

Molecule COc1cc([C@@]23C[C@]2(C(=O)Nc2ccc(Cl)c(C(F)(F)F)c2)[C@H]2C[C@H](O)[C@@H]3O2)ccn1 (racemic) [Example 70, rac-(1R,2R,4S,5R,6S)—N-(4-chloro-3-(trifluoromethyl)phenyl)-6-hydroxy-4-(2-methoxypyridin-4-yl)-8-oxatricyclo[3.2.1.02,4]octane-2-carboxamide] has an IC50 of over 30 µM and an Emax of 39%.

With COc1cc([C@@]23C[C@]2(C(=O)Nc2cc(C(F)(F)F)ccc2C)[C@H]2C[C@H](O)[C@@H]3O2)ccn1 (racemic) [Example 30, rac-(1R,2R,4S,5R,6S)-6-hydroxy-4-(2-methoxypyridin-4-yl)-N-(2-methyl-5-(trifluoromethyl)phenyl)-8-oxatricyclo[3.2.1.02,4]octane-2-carboxamide] the IC50 was over 30 µM and the Emax was 27%.
